US12011469B2, “Parenteral delivery device and methods of use” (Vireo Systems, Inc., priority 2017, dated 2024)

Experiments:
[1] = tested on: co-cultures of C. albicans and Lactobacilli; conditions: Lactobacilli added dropwise immediately after C. albicans was spread onto the plate
Text: In some cases, the C. albicans was co-cultured with the Lactobacilli. For this inoculum, equal volumes of the two suspensions of organisms described earlier were mixed and used to spread on LB-agar plates for testing for any effect of the co-culture on the anti-yeast activity of hydrogen borate or any effect on Lactobacillus growth.

[2] = tested on: Lactobacilli; conditions: 60 mg hydrogen borate in well, LB-agar, overnight; Lactobacilli added one hour or 12 hours after hydrogen borate
Procedure: Lactobacillus capsular material (40 mg) was suspended in 1.0 milliliter of LB-broth and 25 microliters was spread on the surface of half of an LB-agar plate. For comparison, the other half of the plate spread with C. albicans. A hole was punched in the middle of the plate and 60 mg of hydrogen borate was added. The plates were incubated overnight and scored for growth and/or a zone of inhibition around the hydrogen borate well.
In some cases, only about a quarter of the LB-agar plate was spread with the L-capsular suspension in which case only 10 microliters was used.

[3] = tested on: Candida albicans, ATTC number 10231; assay: microbe, parasite or virus in culture; conditions: read-out: zone of inhibition against the yeast, Candida albicans
Procedure: Candida albicans, ATTC number 10231, was used as a test organism. Cultures of C. albicans were grown in a rotator overnight at room temperature in tubes of LB-broth. The cultures contained approximately 1×10^8 organisms per mL. The suspension was diluted 1:1000 in LB-broth and 50 microliters were spread on the surface of a LB-agar plate, i.e., approximately 5,000 organisms.

OB(O)O [hydrogen borate]
effect of co-culture on the anti-yeast activity of hydrogen borate [1]: did not affect the activity | effect on the growth of Lactobacilli [2]: did not have an effect | zone of inhibition at 60000 µg/disc [3]: 45 mm
